The source of these data is patent publication US10793564B2, “Amino acid compounds and methods of use” (Pliant Therapeutics, Inc., priority 2018, dated 2020).

SMILES strings stand for the structures. Bounds are passed on as bounds.

Chain of recombinant human integrin αVβ6 (P06756 31-992): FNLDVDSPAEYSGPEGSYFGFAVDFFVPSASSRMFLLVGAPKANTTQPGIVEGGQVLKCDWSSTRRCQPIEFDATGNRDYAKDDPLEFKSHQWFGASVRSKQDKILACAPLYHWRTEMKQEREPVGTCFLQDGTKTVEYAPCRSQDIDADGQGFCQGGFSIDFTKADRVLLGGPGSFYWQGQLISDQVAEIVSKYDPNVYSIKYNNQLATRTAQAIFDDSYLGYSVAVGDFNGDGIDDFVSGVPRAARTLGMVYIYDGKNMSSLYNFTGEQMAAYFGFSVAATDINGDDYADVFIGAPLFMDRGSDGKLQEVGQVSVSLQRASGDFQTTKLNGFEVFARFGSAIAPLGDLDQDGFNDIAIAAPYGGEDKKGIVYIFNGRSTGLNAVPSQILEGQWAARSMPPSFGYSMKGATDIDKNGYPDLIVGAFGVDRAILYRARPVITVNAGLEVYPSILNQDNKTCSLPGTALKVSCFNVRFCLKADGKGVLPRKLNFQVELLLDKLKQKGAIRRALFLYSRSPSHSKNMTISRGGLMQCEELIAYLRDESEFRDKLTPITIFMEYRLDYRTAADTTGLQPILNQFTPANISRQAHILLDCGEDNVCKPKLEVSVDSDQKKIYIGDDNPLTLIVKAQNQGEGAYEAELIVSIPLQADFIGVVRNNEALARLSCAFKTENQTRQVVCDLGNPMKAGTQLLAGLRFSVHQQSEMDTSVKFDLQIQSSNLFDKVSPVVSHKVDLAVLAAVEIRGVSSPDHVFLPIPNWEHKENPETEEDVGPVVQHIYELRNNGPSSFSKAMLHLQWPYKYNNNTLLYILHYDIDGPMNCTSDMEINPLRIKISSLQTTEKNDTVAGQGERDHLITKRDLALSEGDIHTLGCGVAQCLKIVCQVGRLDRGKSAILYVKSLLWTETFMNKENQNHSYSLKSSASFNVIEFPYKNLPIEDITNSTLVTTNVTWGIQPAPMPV
Chain of recombinant human integrin αVβ6 (P18564 22-707): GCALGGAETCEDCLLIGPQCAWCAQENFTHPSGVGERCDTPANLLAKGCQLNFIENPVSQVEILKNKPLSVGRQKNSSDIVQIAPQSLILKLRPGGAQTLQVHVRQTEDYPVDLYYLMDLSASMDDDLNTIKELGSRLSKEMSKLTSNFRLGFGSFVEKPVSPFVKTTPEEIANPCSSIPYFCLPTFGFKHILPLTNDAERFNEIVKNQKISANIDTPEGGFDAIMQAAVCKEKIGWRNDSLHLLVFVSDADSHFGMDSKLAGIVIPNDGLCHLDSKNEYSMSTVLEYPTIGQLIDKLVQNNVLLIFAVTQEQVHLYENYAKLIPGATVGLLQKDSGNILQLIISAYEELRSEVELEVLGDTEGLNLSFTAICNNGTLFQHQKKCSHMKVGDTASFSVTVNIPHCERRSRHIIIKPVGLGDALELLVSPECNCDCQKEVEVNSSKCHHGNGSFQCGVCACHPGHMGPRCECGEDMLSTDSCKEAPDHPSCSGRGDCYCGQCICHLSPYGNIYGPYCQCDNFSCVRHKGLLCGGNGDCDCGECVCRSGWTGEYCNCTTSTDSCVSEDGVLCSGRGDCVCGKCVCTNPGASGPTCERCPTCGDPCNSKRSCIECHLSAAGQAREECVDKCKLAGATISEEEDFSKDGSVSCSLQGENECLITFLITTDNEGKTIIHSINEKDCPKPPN

This assay deals with recombinant human integrin αVβ6 (Homo sapiens (Human), UniProt P06756+P18564). Put plainly: Solid phase integrin αVβ6 binding assay. The following applies: inhibition of recombinant TGFβ1 LAP binding to coated integrin, IC50 presented in four ranges, read-out: αvβ6 Inhibition IC50 (nM) - range. How it is done:
(§1) Microplates were coated with recombinant human integrin αVβ6 (2 μg/mL) in PBS (100 μL/well 25° C., overnight). The coating solution was removed, washed with wash buffer (0.05% Tween 20; 0.5 mM MnCl2; in 1×TBS). The plate was blocked with 200 μL/well of Block Buffer (1% BSA; 5% sucrose; 0.5 mM MnCl2; in 1×TBS) at 37° C. for 2 h. Dilutions of testing compounds and recombinant TGFβ1 LAP (0.67 μg/mL) in binding buffer (0.05% BSA; 2.5% sucrose; 0.5 mM MnCl2; in 1×TBS) were added. The plate was incubated for 2 hours at 25° C., washed, and incubated for 1 hour with Biotin-Anti-hLAP. Bound antibody was detected by peroxidase-conjugated streptavidin. The IC50 values for testing compounds were calculated by a four-parameter logistic regression.
The compounds tested were compound samples prepared according to procedures described in the Synthetic Examples section, with the stereochemical purity as indicated in the Examples.
as §1, with “A third series of exemplary compounds was selected for testing in the solid phase integrin αVβ6 binding assay. The compounds tested were compound samples prepared according to procedures described in the Synthetic Examples section, with the stereochemical purity as indicated in the Examples. As in Example B1, microplates were” for “Microplates were”, “(0.67 g/mL)” for “(0.67 μg/mL)”
Take `O=C(O)[C@H](CCN(CCCCc1ccc2c(n1)NCCC2)C1CC1)Nc1cc(C(F)F)ncn1` [Compound 1, (S)-4-(cyclopropyl(4-(5,6,7,8-tetrahydro-1,8-naphthyridin-2-yl)butyl)amino)-2-((6-(difluoromethyl)pyrimidin-4-yl)amino) butanoic Acid]: the IC50 was in the range of 250 to 1000 nM. For the molecule `CC(C)(O)CN(CCCCc1ccc2c(n1)NCCC2)CC[C@H](Nc1ccncn1)C(=O)O` [Compound 4, (S)-4-((2-hydroxy-2-methylpropyl) (4-(5,6,7,8-tetrahydro-1,8-naphthyridin-2-yl)butyl)amino)-2-(pyrimidin-4-ylamino) butanoic Acid], the IC50 was 50 to 250 nM. With `COCCN(CCCCc1ccc2c(n1)NCCC2)CC[C@H](Nc1ncnc2ccccc12)C(=O)O` [Compound 5, (S)-4-((2-methoxyethyl) (4-(5,6,7,8-tetrahydro-1,8-naphthyridin-2-yl)butyl)amino)-2-(quinazolin-4-ylamino) butanoic Acid], the IC50 is less than 50 nM. The same measure for `O=C(O)[C@H](CCN(CCCCc1ccc2c(n1)NCCC2)C1CC1)Nc1ncnc2ccccc12` [Compound 6, (S)-4-(cyclopropyl(4-(5,6,7,8-tetrahydro-1,8-naphthyridin-2-yl)butyl)amino)-2-(quinazolin-4-ylamino) butanoic Acid]: 50 to 250 nM; for `COCCN(CCCCc1ccc2c(n1)NCCC2)CC[C@H](Nc1ncnc2cc(F)ccc12)C(=O)O` [Compound 7, (S)-2-((7-fluoroquinazolin-4-yl)amino)-4-((2-methoxyethyl) (4-(5,6,7,8-tetrahydro-1,8-naphthyridin-2-yl)butyl)amino) butanoic Acid]: less than 50 nM.

Take `O=C(O)[C@H](CCN(CCCCc1ccc2c(n1)NCCC2)CC(F)F)Nc1ncnc2ccccc12` [Compound 8, (S)-4-((2,2-difluoroethyl) (4-(5,6,7,8-tetrahydro-1,8-naphthyridin-2-yl)butyl)amino)-2-(quinazolin-4-ylamino) butanoic Acid]: the IC50 lay in the range of 50 to 250 nM. For the molecule `O=C(O)[C@H](CCN(CCCCc1ccc2c(n1)NCCC2)C1CC(F)(F)C1)Nc1ncnc2ccccc12` [Compound 9, (S)-4-((3,3-difluorocyclobutyl) (4-(5,6,7,8-tetrahydro-1,8-naphthyridin-2-yl)butyl)amino)-2-(quinazolin-4-ylamino) butanoic Acid], the IC50 is greater than 1000 nM.

With `COCCN(CCCCc1ccc2c(n1)NCCC2)CC[C@H](Nc1nc(C)nc2ccccc12)C(=O)O` [Compound 10, (S)-4-((2-methoxyethyl) (4-(5,6,7,8-tetrahydro-1,8-naphthyridin-2-yl)butyl)amino)-2-((2-methylquinazolin-4-yl)amino) butanoic Acid], the half-maximal inhibitory concentration (IC50) is less than 50 nM. Turning to `COCCN(CCCCc1ccc2c(n1)NCCC2)CC[C@H](Nc1ncnc2ncccc12)C(=O)O` [Compound 11, (S)-4-((2-methoxyethyl) (4-(5,6,7,8-tetrahydro-1,8-naphthyridin-2-yl)butyl)amino)-2-(pyrido[2,3-d]pyrimidin-4-ylamino) butanoic Acid], the IC50 is less than 50 nM. As to `COCCN(CCCCc1ccc2c(n1)NCCC2)CC[C@H](Nc1nc(C)nc2cc(F)ccc12)C(=O)O` [Compound 12, (S)-2-((7-fluoro-2-methylquinazolin-4-yl)amino)-4-((2-methoxyethyl) (4-(5,6,7,8-tetrahydro-1,8-naphthyridin-2-yl)butyl)amino) butanoic Acid], the IC50 was less than 50 nM. As to `COCCN(CCCCc1ccc2c(n1)NCCC2)CC[C@H](Nc1ncnc2cc(C(F)(F)F)ccc12)C(=O)O` [Compound 13, (S)-4-((2-methoxyethyl) (4-(5,6,7,8-tetrahydro-1,8-naphthyridin-2-yl)butyl)amino)-2-((7-(trifluoromethyl)quinazolin-4-yl)amino) butanoic Acid], the IC50 lay in the range of 50 to 250 nM. Turning to `COCCN(CCCCc1ccc2c(n1)NCCC2)CC[C@H](Nc1nc(C(F)(F)F)nc2ccccc12)C(=O)O` [Compound 14, (S)-4-((2-methoxyethyl) (4-(5,6,7,8-tetrahydro-1,8-naphthyridin-2-yl)butyl)amino)-2-((2-(trifluoromethyl)quinazolin-4-yl)amino) butanoic Acid], the IC50 is less than 50 nM. For the molecule `COCCN(CCCCc1ccc2c(n1)NCCC2)CC[C@H](Nc1ncnc2c(C(F)(F)F)cccc12)C(=O)O` [Compound 15, (S)-4-((2-methoxyethyl) (4-(5,6,7,8-tetrahydro-1,8-naphthyridin-2-yl)butyl)amino)-2-((8-(trifluoromethyl)quinazolin-4-yl)amino) butanoic Acid], the IC50 was less than 50 nM.

In the case of `COCCN(CCCCc1ccc2c(n1)NCCC2)CC[C@H](Nc1ncnc2cccnc12)C(=O)O` [Compound 16, (S)-4-((2-methoxyethyl) (4-(5,6,7,8-tetrahydro-1,8-naphthyridin-2-yl)butyl)amino)-2-(pyrido[3,2-d]pyrimidin-4-ylamino) butanoic Acid], the IC50 was less than 50 nM. To `COCCN(CCCCc1ccc2c(n1)NCCC2)CC[C@H](Nc1ncnc2cnccc12)C(=O)O` [Compound 17, (S)-4-((2-methoxyethyl) (4-(5,6,7,8-tetrahydro-1,8-naphthyridin-2-yl)butyl)amino)-2-(pyrido[3,4-d]pyrimidin-4-ylamino) butanoic Acid] belongs less than 50 nM; to `COCCN(CCCCc1ccc2c(n1)NCCC2)CC[C@H](Nc1ncnc2cccc(F)c12)C(=O)O` [Compound 18, (S)-2-((5-fluoroquinazolin-4-yl)amino)-4-((2-methoxyethyl) (4-(5,6,7,8-tetrahydro-1,8-naphthyridin-2-yl)butyl)amino) butanoic Acid], less than 50 nM. In the case of `COCCN(CCCCc1ccc2c(n1)NCCC2)CC[C@H](Nc1ncnc2ccc(F)cc12)C(=O)O` [Compound 19, (S)-2-((6-fluoroquinazolin-4-yl)amino)-4-((2-methoxyethyl) (4-(5,6,7,8-tetrahydro-1,8-naphthyridin-2-yl)butyl)amino) butanoic Acid], the IC50 is less than 50 nM. The same measure for `COCCN(CCCCc1ccc2c(n1)NCCC2)CC[C@H](Nc1ncnc2c(F)cccc12)C(=O)O` [Compound 20, (S)-2-((8-fluoroquinazolin-4-yl)amino)-4-((2-methoxyethyl) (4-(5,6,7,8-tetrahydro-1,8-naphthyridin-2-yl)butyl)amino) butanoic Acid]: less than 50 nM; for `COCCN(CCCCc1ccc2c(n1)NCCC2)CC[C@H](Nc1ncnc2cc(F)c(F)cc12)C(=O)O` [Compound 21, (S)-2-((6,7-difluoroquinazolin-4-yl)amino)-4-((2-methoxyethyl) (4-(5,6,7,8-tetrahydro-1,8-naphthyridin-2-yl)butyl)amino) butanoic Acid]: less than 50 nM. In the case of `COCCN(CCCCc1ccc2c(n1)NCCC2)CC[C@H](Nc1cc(C(F)(F)F)nc(C)n1)C(=O)O` [Compound 22, (S)-4-((2-methoxyethyl) (4-(5,6,7,8-tetrahydro-1,8-naphthyridin-2-yl)butyl)amino)-2-((2-methyl-6-(trifluoromethyl)pyrimidin-4-yl)amino) butanoic Acid], the IC50 was less than 50 nM.

On to `COCCN(CCCCc1ccc2c(n1)NCCC2)CC[C@H](Nc1cc(C(F)F)ncn1)C(=O)O` [Compound 23, (S)-2-((6-(difluoromethyl)pyrimidin-4-yl)amino)-4-((2-methoxyethyl) (4-(5,6,7,8-tetrahydro-1,8-naphthyridin-2-yl)butyl)amino) butanoic Acid], for which the IC50 is less than 50 nM. With `COCCN(CCCCc1ccc2c(n1)NCCC2)CC[C@H](Nc1ccnc(C(F)(F)F)n1)C(=O)O` [Compound 24, (S)-4-((2-methoxyethyl) (4-(5,6,7,8-tetrahydro-1,8-naphthyridin-2-yl)butyl)amino)-2-((2-(trifluoromethyl)pyrimidin-4-yl)amino) butanoic Acid], the IC50 is less than 50 nM. The same measure for `CO[C@@H](C)CN(CCCCc1ccc2c(n1)NCCC2)CC[C@H](Nc1ncnc2ccccc12)C(=O)O` [Compound 25, (S)-4-(((S)-2-methoxypropyl) (4-(5,6,7,8-tetrahydro-1,8-naphthyridin-2-yl)butyl)amino)-2-(quinazolin-4-ylamino) butanoic Acid]: less than 50 nM; for `COCCN(CCCCc1ccc2c(n1)NCCC2)CC[C@H](Nc1cc(C)nc(C(F)(F)F)n1)C(=O)O` [Compound 26, (S)-4-((2-methoxyethyl) (4-(5,6,7,8-tetrahydro-1,8-naphthyridin-2-yl)butyl)amino)-2-((6-methyl-2-(trifluoromethyl)pyrimidin-4-yl)amino) butanoic Acid]: less than 50 nM.
